Experimental data taken from patent US8563714B2, “Bridged spiro [2.4] heptane derivatives as ALX receptor and/or FPRL2 agonists” (Actelion Pharmaceuticals Ltd., priority 2009, dated 2013).

Key:
human ALX receptor = biological target: T1, human ALX receptor (Homo sapiens, UniProt P25090); experiment: Intracellular calcium measurements (FLIPR), agonistic activity in HEK293-hALXR-Gα16 cells; type: cell-based; conditions: Fluo-4 calcium FLIPR, normalized to WKYMVm 10 nM
T1 construct: expressed in transfected cells; host or cells: HEK293 (HEK293-hALXR-Gα16)
T1 sequence (P25090 1-351): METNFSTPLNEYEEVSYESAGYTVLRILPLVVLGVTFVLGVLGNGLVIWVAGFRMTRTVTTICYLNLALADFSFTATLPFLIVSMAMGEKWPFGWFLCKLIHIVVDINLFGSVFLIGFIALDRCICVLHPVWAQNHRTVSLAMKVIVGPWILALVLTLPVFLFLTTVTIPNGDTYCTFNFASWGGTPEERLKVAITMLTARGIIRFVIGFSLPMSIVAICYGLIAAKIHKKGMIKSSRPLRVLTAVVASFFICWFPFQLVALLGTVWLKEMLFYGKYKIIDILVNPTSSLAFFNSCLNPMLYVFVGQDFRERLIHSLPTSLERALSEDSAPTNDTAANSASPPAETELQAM
How it was run: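 HEK293 cells expressing hALXR and Gα16 were loaded with 1 μM Fluo-4 AM and 20 mM HEPES for 60 min at 37°C, then exposed to serially diluted compound. FLIPR fluorescence was read at ex 488/em 540 nm. Baseline-subtracted peak responses were normalized to 10 nM WKYMVm.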

human FPRL2 = biological target: T2, human FPRL2 (Homo sapiens, UniProt P25089); experiment: Intracellular calcium measurements (FLIPR), agonistic activity in HEK293-hFPRL2-Gα16 cells; type: cell-based; conditions: Fluo-4 calcium FLIPR, normalized to GLY14-Humanin 100 nM
T2 construct: expressed in transfected cells; host or cells: HEK293 (HEK293-hFPRL2-Gα16)
T2 sequence (P25089 1-353): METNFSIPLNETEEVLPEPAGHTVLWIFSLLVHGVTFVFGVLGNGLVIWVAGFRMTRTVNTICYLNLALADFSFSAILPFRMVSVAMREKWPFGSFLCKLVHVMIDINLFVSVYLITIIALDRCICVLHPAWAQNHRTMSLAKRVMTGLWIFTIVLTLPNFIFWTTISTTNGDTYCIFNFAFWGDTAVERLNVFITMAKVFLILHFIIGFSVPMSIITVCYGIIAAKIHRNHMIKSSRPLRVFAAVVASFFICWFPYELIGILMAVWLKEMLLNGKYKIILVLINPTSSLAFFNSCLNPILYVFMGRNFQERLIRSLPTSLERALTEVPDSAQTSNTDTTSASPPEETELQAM
How it was run: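 Peak values after baseline subtraction are expressed relative to 100 nM Gly14-Humanin; compounds diluted in assay buffer from 10 mM DMSO stocks.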

EC50 (human ALX receptor) | EC50 (human FPRL2) | Structure (SMILES)
82 nM | 3550 nM | CC(=O)c1csc(CNC(=O)[C@H]2[C@H](C(=O)NCCN3CCNC3=O)[C@H]3C=C[C@@H]2C32CC2)n1 (racemic) [Example 269, (5R*)—N^5-(4-Acetyl-thiazol-2-yl-methyl)-(6R*)—N^6-((2-imidazolidin-2-on)-1-yl-ethyl)-(4S*,7R*)-[4,7-ethenylene-spiro[2.4]heptane]-5,6-dicarboxamide]
54 nM | 396 nM | CCN(CC)CCCCNC(=O)[C@H]1[C@H](C(=O)Nc2ncc(Br)s2)[C@@H]2C=C[C@H]1C21CC1 (racemic) [Example 270, (5R*)—N^5-(5-Bromothiazol-2-yl)-(6R*)—N^6-(4-diethylamino-butyl)-(4S*,7R*)-[4,7-ethenylene-spiro[2.4]heptane]-5,6-dicarboxamide]
673 nM | > 25000 nM | O=C(NCCF)[C@H]1[C@H](C(=O)NCc2ccc(Br)cc2)[C@@H]2C=C[C@H]1C21CC1 (racemic) [Example 271, (5R*)—N^5-(4-Bromophenyl-methyl)-(6R*)—N^6-(2-fluoroethyl)-(4S*,7R*)-[4,7-ethenylene-spiro[2.4]heptane]-5,6-dicarboxamide]
213 nM | 432 nM | CN1CCN(CCCNC(=O)[C@H]2[C@H](C(=O)NCc3ccc(Br)cc3)[C@@H]3C=C[C@H]2C32CC2)CC1 (racemic) [Example 273, (5R*)—N^5-(4-Bromophenyl-methyl)-(6R*)—N^6-(3-(4-methylpiperazin-1-yl)-propyl)-(4S*,7R*)-[4,7-ethenylene-spiro[2.4]heptane]-5,6-dicarboxamide]
290 nM | 1170 nM | CN(C)CCNC(=O)[C@H]1[C@H](C(=O)NCc2ccc(Br)cc2)[C@@H]2C=C[C@H]1C21CC1 (racemic) [Example 274, (5R*)—N^5-(4-Bromophenyl-methyl)-(6R*)—N^6-(2-dimethylamino-ethyl)-(4S*,7R*)-[4,7-ethenylene-spiro[2.4]heptane]-5,6-dicarboxamide]
181 nM | 7040 nM | O=C(NCCN1CCNC1=O)[C@H]1[C@H](C(=O)NCc2ccc(Br)cc2)[C@@H]2C=C[C@H]1C21CC1 (racemic) [Example 275, (5R*)—N^5-(4-Bromophenyl-methyl)-(6R*)—N^6-((2-imidazolidin-2-on)-1-yl-ethyl)-(4S*,7R*)-[4,7-ethenylene-spiro[2.4]heptane]-5,6-dicarboxamide]
44 nM | > 25000 nM | COCCNC(=O)[C@H]1[C@H](C(=O)Nc2ncc(Br)s2)[C@@H]2C=C[C@H]1C21CC1 (racemic) [Example 276, (5R*)—N^5-(5-Bromothiazol-2-yl)-(6R*)—N^6-(2-methoxy-ethyl)-(4S*,7R*)-[4,7-ethenylene-spiro[2.4]heptane]-5,6-dicarboxamide]
61 nM | 2010 nM | CN(C)CCCNC(=O)[C@H]1[C@H](C(=O)Nc2ncc(Br)s2)[C@@H]2C=C[C@H]1C21CC1 (racemic) [Example 277, (5R*)—N^5-(5-Bromothiazol-2-yl)-(6R*)—N^6-(3-dimethylamino-propyl)-(4S*,7R*)-[4,7-ethenylene-spiro[2.4]heptane]-5,6-dicarboxamide]
273 nM | 359 nM | CC(=O)c1csc(CNC(=O)[C@H]2[C@H](C(=O)NCCCN)[C@H]3C=C[C@@H]2C32CC2)n1 (racemic) [Example 299, (5R*)—N^5-(4-Acetyl-thiazol-2-yl-methyl)-(6R*)—N^6-(3-amino-propyl)-(4S*,7R*)-[4,7-ethenylene-spiro[2.4]heptane]-5,6-dicarboxamide]
384 nM | 1820 nM | CC(=O)c1csc(CNC(=O)[C@H]2[C@H](C(=O)NCC3CCNCC3)[C@H]3C=C[C@@H]2C32CC2)n1 (racemic) [Example 300, (5R*)—N^5-(4-Acetyl-thiazol-2-yl-methyl)-(6R*)—N^6-(piperidin-4-yl-methyl)-(4S*,7R*)-[4,7-ethenylene-spiro[2.4]heptane]-5,6-dicarboxamide]
98 nM | 2700 nM | CNCCNC(=O)[C@H]1[C@H](C(=O)Nc2ncc(Br)s2)[C@@H]2C=C[C@H]1C21CC1 (racemic) [Example 301, (5R*)—N^5-(5-Bromo-thiazol-2-yl)-(6R*)—N^6-(2-methylamino-ethyl)-(4S*,7R*)-[4,7-ethenylene-spiro[2.4]heptane]-5,6-dicarboxamide]
1.3 nM | 543 nM | NCCCCCNC(=O)[C@H]1[C@H](C(=O)Nc2ncc(Br)s2)[C@@H]2C=C[C@H]1C21CC1 (racemic) [Example 302, (5R*)—N^5-(5-Bromo-thiazol-2-yl)-(6R*)—N^6-(5-amino-pentyl)-(4S*,7R*)-[4,7-ethenylene-spiro[2.4]heptane]-5,6-dicarboxamide]
45 nM | 1340 nM | NCc1ccc(CNC(=O)[C@H]2[C@H](C(=O)Nc3ncc(Br)s3)[C@@H]3C=C[C@H]2C32CC2)cc1 (racemic) [Example 303, (5R*)—N^5-(5-Bromo-thiazol-2-yl)-(6R*)—N^6-(4-(aminomethyl)phenyl-methyl)-(4S*,7R*)-[4,7-ethenylene-spiro[2.4]heptane]-5,6-dicarboxamide]
12 nM | 1630 nM | CC(C)(CN)CNC(=O)[C@H]1[C@H](C(=O)Nc2ncc(Br)s2)[C@@H]2C=C[C@H]1C21CC1 (racemic) [Example 304, (5R*)—N^5-(5-Bromo-thiazol-2-yl)-(6R*)—N^6-(2,2-dimethyl-3-amino-propyl)-(4S*,7R*)-[4,7-ethenylene-spiro[2.4]heptane]-5,6-dicarboxamide]
350 nM | 2050 nM | CNCCNC(=O)[C@H]1[C@H](C(=O)NCc2ccc(Br)cc2)[C@@H]2C=C[C@H]1C21CC1 (racemic) [Example 305, (5R*)—N^5-(4-Bromophenyl-methyl)-(6R*)—N^6-(2-methylamino-ethyl)-(4S*,7R*)-[4,7-ethenylene-spiro[2.4]heptane]-5,6-dicarboxamide]
23 nM | 2760 nM | O=C(NC1CCNCC1)[C@H]1[C@H](C(=O)NCc2ccc(Br)cc2)[C@@H]2C=C[C@H]1C21CC1 (racemic) [Example 306, (5R*)—N^5-(4-Bromophenyl-methyl)-(6R*)—N^6-(piperidin-4-yl)-(4S*,7R*)-[4,7-ethenylene-spiro[2.4]heptane]-5,6-dicarboxamide]
76 nM | 2640 nM | NCCCNC(=O)[C@H]1[C@H](C(=O)NCc2ccc(Br)cc2)[C@@H]2C=C[C@H]1C21CC1 (racemic) [Example 307, (5R*)—N^5-(4-Bromophenyl-methyl)-(6R*)—N^6-(3-amino-propyl)-(4S*,7R*)-[4,7-ethenylene-spiro[2.4]heptane]-5,6-dicarboxamide]
59 nM | 493 nM | NCc1cccc(CNC(=O)[C@H]2[C@H](C(=O)NCc3ccc(Br)cc3)[C@@H]3C=C[C@H]2C32CC2)c1 (racemic) [Example 308, (5R*)—N^5-(4-Bromophenyl-methyl)-(6R*)—N^6-(3-(aminomethyl)phenyl-methyl)-(4S*,7R*)-[4,7-ethenylene-spiro[2.4]heptane]-5,6-dicarboxamide]
367 nM | 1340 nM | NCc1ccc(CNC(=O)[C@H]2[C@H](C(=O)NCc3ccc(Br)cc3)[C@@H]3C=C[C@H]2C32CC2)cc1 (racemic) [Example 309, (5R*)—N^5-(4-Bromophenyl-methyl)-(6R*)—N^6-(4-(aminomethyl)phenyl-methyl)-(4S*,7R*)-[4,7-ethenylene-spiro[2.4]heptane]-5,6-dicarboxamide]
26 nM | 466 nM | CC(C)(CN)CNC(=O)[C@H]1[C@H](C(=O)NCc2ccc(Br)cc2)[C@@H]2C=C[C@H]1C21CC1 (racemic) [Example 310, (5R*)—N^5-(4-Bromophenyl-methyl)-(6R*)—N^6-(2,2-dimethyl-3-amino-propyl)-(4S*,7R*)-[4,7-ethenylene-spiro[2.4]heptane]-5,6-dicarboxamide]
54 nM | 1170 nM | O=C(NCC1CCNCC1)[C@H]1[C@H](C(=O)NCc2ccc(Br)cc2)[C@@H]2C=C[C@H]1C21CC1 (racemic) [Example 311, (5R*)—N^5-(4-Bromophenyl-methyl)-(6R*)—N^6-(piperidin-4-yl-methyl)-(4S*,7R*)-[4,7-ethenylene-spiro[2.4]heptane]-5,6-dicarboxamide]
